Reference: patent publication US8124793B2, “Derivatives of ethylene methanedisulfonate as cancer chemotherapeutic agents” (priority 2007, dated 2012)

Legend:
Type in all cases: cell-based
HL-60 (TB) = assay: NCI screen, growth of human tumor cells: Leukemia HL-60 (TB); conditions: HL-60 (TB) (Leukemia), 10^−4 molar
Description: (§1) In the NCI screening process, each compound was tested and described by a minimum of 60 data points. The test data include, but are not limited to the type of cancer, the molar concentration used in the screen, and the percent growth of the cancer. In some cases, NMR and elemental analysis were used for structural assignment.

SR = assay: NCI screen, growth of human tumor cells: Leukemia SR; conditions: SR (Leukemia), 10^−4 molar
In short: (§2)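 The NCI screen tests each compound on human cancer cell lines and reports percent growth. Concentrations are given in molar units; the number of data points per compound is sixty at minimum.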

HOP-92 = assay: NCI screen, growth of human tumor cells: Non-Small Cell Lung HOP-92; conditions: HOP-92 (Non-Small Cell Lung), 10^−4 molar
In short: as §2

NCI-H460 = assay: NCI screen, growth of human tumor cells: Non-Small Cell Lung NCI-H460; conditions: NCI-H460 (Non-Small Cell Lung), 10^−4 molar
In short: as §2

SW620 = assay: NCI screen, growth of human tumor cells: Colon Cancer SW620
Description: as §1

SF-268 = assay: NCI screen, growth of human tumor cells: CNS Cancer SF-268; conditions: SF-268 (CNS Cancer), 10^−4 molar
In short: as §2

SF-295 = assay: NCI screen, growth of human tumor cells: CNS Cancer SF-295
In short: as §2

SF-539 = assay: NCI screen, growth of human tumor cells: CNS Cancer SF-539; conditions: SF-539 (CNS Cancer), 10^−4 molar
In short: as §2

SNB-75 = assay: NCI screen, growth of human tumor cells: CNS Cancer SNB-75; conditions: SNB-75 (CNS Cancer), 10^−4 molar
In short: as §2

U-251 = assay: NCI screen, growth of human tumor cells: CNS Cancer U-251; conditions: U-251 (CNS Cancer), 10^−4 molar
In short: as §2

LOXIMVI = assay: NCI screen, growth of human tumor cells: Melanoma LOXIMVI; conditions: for % Growth: LOXIMVI
Description: as §1

UACC-62 = assay: NCI screen, growth of human tumor cells: Melanoma UACC-62
In short: as §2

786-0 = assay: NCI screen, growth of human tumor cells: Renal Cancer 786-0; conditions: 786-0 (Renal Cancer), 10^−4 molar
In short: as §2

ACHN = assay: NCI screen, growth of human tumor cells: Renal Cancer ACHN; conditions: ACHN (Renal Cancer), 10^−4 molar
In short: as §2

CAKI-1 = assay: NCI screen, growth of human tumor cells: Renal Cancer CAKI-1; conditions: CAKI-1 (Renal Cancer), 10^−4 molar
In short: as §2

UO-31 = assay: NCI screen, growth of human tumor cells: Renal Cancer UO-31; conditions: UO-31 (Renal Cancer), 10^−4 molar
In short: as §2

MCF 7 = assay: NCI screen, growth of human tumor cells: Breast Cancer MCF 7; conditions: MCF 7 (Breast Cancer), 10^−4 molar
In short: as §2

MCF7/ADR-RES = assay: NCI screen, growth of human tumor cells: Breast Cancer MCF7/ADR-RES; conditions: MCF7/ADR-RES (Breast Cancer), 10^−4 molar
In short: as §2

BT-549 = assay: NCI screen, growth of human tumor cells: Breast Cancer BT-549; conditions: BT-549 (Breast Cancer), 10^−4 molar
In short: as §2

T-47D = assay: NCI screen, growth of human tumor cells: Breast Cancer T-47D; conditions: T-47D (Breast Cancer), 10^−4 molar
Description: as §1

human cancer cells = assay: NCI screen summary over the cancers tested (negative growth of human cancer cells); conditions: 10^−4 M conc.; cancers with negative growth / cancers tested
Description: as §1
The derivatives in the tables are grouped using the same category as in the tables 1-6.

Structure (SMILES): C[Si](C)(OCCS(=O)(=O)O)C1S(=O)(=O)OCCOS1(=O)=O [NSC 674991]
- percent of growth of human tumor cells (HL-60 (TB)): 15%
- percent of growth of human tumor cells (SR): 20%
- percent of growth of human tumor cells (HOP-92): 22%
- percent of growth of human tumor cells (NCI-H460): 22%
- % Growth (SW620; SW620, 10^−4 molar): −49%
- % Growth (SW620; SW620, 10^−5 molar): 34%
- % Growth (SW620; SW620, 10^−6 molar): 25%
- percent of growth of human tumor cells (SF-268): 11%
- % Growth (SF-295; SF-295, 10^−4 molar): −31%
- % Growth (SF-295; SF-295, 10^−5 molar): 31%
- percent of growth of human tumor cells (SF-539): 4%
- percent of growth of human tumor cells (SNB-75): −24%
- percent of growth of human tumor cells (U-251): 9%
- percent of growth of human tumor cells (LOXIMVI; LOXIMVI (Melanoma), 10^−4 molar): 10%
- % Growth (LOXIMVI; 10^−4 molar): −90%
- % Growth (LOXIMVI; 10^−5 molar): 63%
- % Growth (UACC-62; UACC-62, 10^−4 molar): 5%
- % Growth (UACC-62; UACC-62, 10^−5 molar): 57%
- percent of growth of human tumor cells (786-0): 16%
- percent of growth of human tumor cells (ACHN): −10%
- percent of growth of human tumor cells (CAKI-1): −8%
- percent of growth of human tumor cells (UO-31): 29%
- percent of growth of human tumor cells (MCF 7): 22%
- percent of growth of human tumor cells (MCF7/ADR-RES): 20%
- percent of growth of human tumor cells (BT-549): 11%
- percent of growth of human tumor cells (T-47D): 18%
- Percentage of cancers showing negative growth cancers tested (human cancer cells): 10^−4 M conc. = 6/21 = 28.6%
